From publication PMC12030253, “New Temporin A Analogues Modified in Positions 1 and 10—Synthesis and Biological Studies” (Pharmaceutics, 2025)
In brackets after ≈: the same amount, converted by molar mass. Several values for one entry are separate records, joined by “and”; a condition that tells them apart may be missing. Equal entries are not always repeated. Where two headings read alike, the source gives them in different places. Square brackets hold non-standard residues; d marks the D form. Ends that are not written are not given here. Peptide text beside a SMILES is read from it. Phe(4-F) = N[C@@H](Cc1ccc(F)cc1)C(=O)O

Key:
MDA-MB-231 cells = type: cell-based, human; conditions: 72 h
Procedure: (§1) Mouse embryonic fibroblasts (BALB 3T3 clone A31), human breast epithelial cells (MCF-12F), luminal A breast cancer (MCF-7), and basal B-type breast cancer (MDA-MB-231) were used in in vitro experiments. Cell cultures were purchased from the American Type Cultures Collection (ATCC, Manassas, VA, USA). Cells were cultured in a growth medium (DMEM-4.5 g/L glucose), 10% FBS, and antibiotics (Sigma-Aldrich, Schnelldorf, Germany). Cells were incubated at 5% CO2, 37 °C, and 95% humidity. Plastic flasks (75 cm^2) were used for the cell culture (Biologix, Lenexa, KS, USA).
(§2) The antiproliferative activity of the peptide analogues was determined by an MTT assay. Normal epithelial cells (MCF-12F) and tumor cell lines (MCF-7 and MDA-MB-231) were used in the in vitro experiments. Cells were plated at 1 × 10^3 cells/100 µL/well in 96-well microplates. […] The optical density of the formazan was measured at λ = 540 nm using a microplate reader. Antiproliferative activities were expressed as IC50 values. The statistical analysis of the results was performed using one-way ANOVA, followed by Bonferroni’s post hoc test.

MCF-7 cells = type: cell-based, human; conditions: 72 h
Procedure: as §1, §2

in vitro = type: cell-based, Mouse; conditions: mouse
Procedure: as §1
(§3) The safety testing was performed according to the OECD Guidelines for the Testing of Chemicals, Section 4, Test No. 432. Mouse embryonic fibroblasts (BALB 3T3, clone A31) were used to perform the in vitro cytotoxicity and phototoxicity tests. Cells were plated at 1 × 10^4 cells per well in 96-well cell culture plates. The cells were incubated in a thermostat for 24 h before the test peptide analogues were added. […] Working concentrations (4–1000 µM) of peptides were obtained by diluting the stock solution with a culture medium. The phototoxicity test was performed using 96-well microplates. The microplates were irradiated with a dose of 2.4 J/cm^2 using a solar light simulator Helios-iO (SERIC Ltd., Tokyo, Japan). After treatment with a neutral red (NR) medium (NR dissolved in culture medium, 34 µg/mL), washing, and application of the NR Desorb solution (freshly prepared 49 parts water + 50 parts ethanol + 1 part acetic acid), the absorption was measured on a microplate reader at a wavelength of 540 nm. Cytotoxicity was expressed as CC50 values.

[1] = test system: Candida albicans NBIMCC 74; assay: Broth dilution MIC, C. albicans; type: cell-based; parameters: key: NI—no inhibition observed; conditions: 0-320 µg/mL, 24 h
Procedure: (§4) In order to evaluate the antimicrobial activity, the parent peptide Temporin A and newly synthesized analogues were tested against model strains Escherichia coli NBIMCC 8785, Pseudomonas aeruginosa NBIMCC 3700, Bacillus subtilis NBIMCC 3562, Arthrobacter oxydans NBIMCC 9333, and Candida albicans NBIMCC 74. The strains were purchased from the National Bank for Industrial Microorganisms and Cell Cultures (NBIMCC, Sofia, Bulgaria). They were cultured as follows: • E. coli 8785 in Luria–Bertani (LB, HiMedia, Mumbai, India) agar medium; • B. subtilis 3562 in nutrient broth (NB, HiMedia, Mumbai, India) agar medium; • P. aeruginosa 3700 and A. oxydans 9333 in Meat Peptone agar (MPA) medium; • C. albicans 74 in Yeast Mold (YM) agar medium.
(§5) The cultivation was performed in an incubator shaker ES-20/60 (Biosan, Riga, Latvia), set for B. subtilis 3562, A. oxydans 9333, and C. albicans 74 at 30 °C, and for E. coli 8785 and P. aeruginosa 3700 at 37 °C, for 24 h with 120 rpm. The microbial cultures were then brought to a 0.5 McFarland turbidity using a Grant-bio DEN-1B densitometer (Grant Instruments, Nether Alderley, United Kingdom).
(§6) The broth dilution method was employed to estimate the MIC of the peptides. In total, 10 mg/mL peptide stock solutions in 10% EtOH/H2O were prepared. […] The absorbance was measured at 630 nm (microplate reader PKL PPC 142, Italy). […]

[2] = test system: Pseudomonas aeruginosa NBIMCC 3700; type: cell-based
Procedure: as §4, §5
(§7) The broth dilution method was employed to estimate the MIC of the peptides. In total, 10 mg/mL peptide stock solutions in 10% EtOH/H2O were prepared. Microbial culture in the corresponding media and peptide solutions in a concentration range from 0 to 320 µg/mL (concentration levels: 0, 10, 20, 40, 80, 160, and 320 µg/mL) were placed in 96-well U-shaped-bottom polystyrene plates (Deltalab S.L., Barcelona, Spain). In addition, 10% EtOH/H2O control, diluted in the nutrient medium, was added in separate wells. Furthermore, the microplates were incubated under aerobic conditions at the desired temperature for 24 h. […] The absorbance was measured at 630 nm (microplate reader PKL PPC 142, Italy). In total, 10 μL solution with concentrations greater than or equal to the MIC value was placed on the corresponding solid nutrient medium in order to evaluate a potential minimum bactericidal concentration (MBC) and minimal fungicidal concentration (MFC). Furthermore, the Petri dishes were incubated for 24 h at either 30 or 37 °C. Every experiment was carried out three times.

[3] = test system: Arthrobacter oxydans NBIMCC 9333; type: cell-based; conditions: 24 h
Procedure: as §4, §5, §7

[4] = test system: Bacillus subtilis NBIMCC 3562; type: cell-based
Procedure: as §4, §5, §7

[5] = test system: Escherichia coli NBIMCC 8785; assay: Broth dilution MIC, E. coli; type: cell-based; parameters: key: NI—no inhibition observed; conditions: 0-320 µg/mL, 24 h
Procedure: as §4, §5, §6

MCF-12F cells = type: cell-based, human; conditions: for IC50: 72 h
Procedure: as §1
The antiproliferative activity of the peptide analogues was determined by an MTT assay. Normal epithelial cells (MCF-12F) and tumor cell lines (MCF-7 and MDA-MB-231) were used in the in vitro experiments. Cells were plated at 1 × 10^3 cells/100 µL/well in 96-well microplates. After 24 h of incubation in a thermostat under standard conditions, the cells were treated with test compounds for 72 h. The optical density of the formazan was measured at λ = 540 nm using a microplate reader. Antiproliferative activities were expressed as IC50 values. The statistical analysis of the results was performed using one-way ANOVA, followed by Bonferroni’s post hoc test.

BALB 3T3 cells = assay: in vitro; type: cell-based, Mouse
Procedure: as §1, §3

[6] = test system: Pseudomonas aeruginosa NBIMCC 3700; type: cell-based; conditions: 10 µg/disk, positive control on the plate of the peptide
Procedure: as §4, §5
(§8) The disk diffusion method was employed as an additional technique in order to determine the percentage of inhibition of the synthesized peptides compared to a chosen antibiotic, used as a positive control. The antibiotics used were gentamicin (10 µg/disk), chloramphenicol (30 µg/disk), and itraconazole (10 µg/disk). In total, 100 μL from each microbial culture was spread on LB/NB/MPA/YM agar plates. The plates were then incubated at the appropriate temperature for a period of 30 min intended for the penetration of the culture into the agar. […] The antimicrobial activity was assessed by measuring the diameter of the inhibition zones in mm. […] In addition, the percentage of inhibition was calculated as the correlation between the inhibition zone of the peptide (measured in mm) over the inhibition zone of the antibiotic (measured in mm) multiplied by 100.

[7] = test system: Escherichia coli NBIMCC 8785; type: cell-based; conditions: 10 µg/disk, positive control on the plate of the peptide
Procedure: as §4, §5, §8

[8] = test system: Escherichia coli NBIMCC 8785; parameters: method as in PMID 38931840; conditions: 10 µg/disk, positive control with DTA; cited from earlier work
[9] = test system: Arthrobacter oxydans NBIMCC 9333; parameters: method as in PMID 38931840; conditions: 10 µg/disk, positive control with DTA; cited from earlier work
[10] = test system: Pseudomonas aeruginosa NBIMCC 3700; parameters: method as in PMID 38931840; conditions: 10 µg/disk, positive control with DTA; cited from earlier work
[11] = test system: Bacillus subtilis NBIMCC 3562; parameters: method as in PMID 38931840; conditions: 30 µg/disk, positive control with DTA; cited from earlier work
[12] = test system: Bacillus subtilis NBIMCC 3562; type: cell-based; conditions: 30 µg/disk, positive control on the plate of the peptide
Procedure: as §4, §5, §8

[13] = broth dilution, 0-320 µg/mL, 24 h

FLPLIGRVLYGIL-NH2 [DTTyr10, FLPLIGRVL-Y-GILNH2]
IC50 (MDA-MB-231 cells): 328.5 ± 2.62 µM
IC50 (MCF-7 cells): 64.5 ± 3.93 µM
CC50 (in vitro; Mean CC50 ± SD +Irr): > 1000 µM
CC50 (in vitro; Mean CC50 ± SD −Irr): > 1000 µM
MIC C. albicans 74 [1]: NI **
MIC P. aeruginosa 3700 [2, 13]: 320 µg/mL
MIC A. oxydans 9333 ([3]; broth dilution, 0-320 µg/mL): 320 µg/mL
MIC B. subtilis 3562 [4, 13]: 320 µg/mL
MIC E. coli 8785 [5]: NI **
IC50 (MCF-12F cells): 251 ± 11.8 µM
Antiproliferative activity in MCF-12F at a single concentration (MCF-12F cells; at 64.51 µM, non-tumorigenic cells): no antiproliferative activity was observed

YLPLIGRVLSGIL-NH2 [DTTyr1, Y-LPLIGRVLSGILNH2]
IC50 (MDA-MB-231 cells): 334 ± 3.72 µM
IC50 (MCF-7 cells): 216 ± 10.3 µM
CC50 (in vitro; Mean CC50 ± SD +Irr): 671 ± 12.2 µM
CC50 (in vitro; Mean CC50 ± SD −Irr): 669 ± 13.4 µM
PIF (Photo-Irritation Factor) (BALB 3T3 cells): 1.0
MIC C. albicans 74 [1]: NI **
MIC P. aeruginosa 3700 ([2]; NBIMCC 3700, 24 h): 320 µg/mL
MIC A. oxydans 9333 [3]: 320 µg/mL
MIC B. subtilis 3562 ([4]; NBIMCC 3562, 24 h): 160 µg/mL
MIC E. coli 8785 [5]: NI **
IC50 (MCF-12F cells): 318 ± 9.79 µM

FLPLIGRVLTGIL-NH2 [DTThr, FLPLIGRVL-T-GILNH2]
IC50 (MDA-MB-231 cells): 136 ± 3.61 µM
IC50 (MCF-7 cells): 98.6 ± 1.19 µM
CC50 (in vitro; Mean CC50 ± SD +Irr): 188 ± 3.55 µM
CC50 (in vitro; Mean CC50 ± SD −Irr): 183 ± 2.91 µM
PIF (Photo-Irritation Factor) (BALB 3T3 cells): 1.0
MIC P. aeruginosa 3700 ([2]; NBIMCC 3700, 24 h): 320 µg/mL
MIC A. oxydans 9333 [3]: 320 µg/mL
MIC B. subtilis 3562 ([4]; NBIMCC 3562, 24 h): 160 µg/mL
IC50 (MCF-12F cells): 165 ± 2.21 µM

CNC(C)C1CCC(N)C(OC2C(N)CC(N)C(OC3OCC(C)(O)C(NC)C3O)C2O)O1 (centres unmarked) [Gentamicin, gentamicin]
Inhibition zone P. aeruginosa 3700, antibiotic control [6]: 17 mm and 18 mm and 16 mm
Inhibition zone E. coli 8785, antibiotic control [7]: 17.5 mm and 16.5 mm and 17 mm
Inhibition zone E. coli 8785, antibiotic control [8]: 18 mm
Inhibition zone A. oxydans 9333, antibiotic control [9]: 18 mm
Inhibition zone P. aeruginosa 3700, antibiotic control [10]: 17 mm

O=C(N[C@H](CO)[C@H](O)c1ccc([N+](=O)[O-])cc1)C(Cl)Cl [Chloramphenicol, chloramphenicol]
Inhibition zone B. subtilis 3562, antibiotic control [11]: 26 mm
Inhibition zone B. subtilis 3562, antibiotic control [12]: 24 mm and 27 mm and 28 mm

CC[C@H](C)[C@H](NC(=O)CNC(=O)[C@H](CO)NC(=O)[C@H](CC(C)C)NC(=O)[C@@H](NC(=O)[C@H](CCCNC(=N)N)NC(=O)CNC(=O)[C@@H](NC(=O)[C@H](CC(C)C)NC(=O)[C@@H]1CCCN1C(=O)[C@H](CC(C)C)NC(=O)[C@@H](N)Cc1ccc(F)cc1)[C@@H](C)CC)C(C)C)C(=O)N[C@@H](CC(C)C)C(N)=O [DT4F, Phe(4F)-LPLIGRVLSGILNH2] (H-[Phe(4-F)]LPLIGRVLSGIL-NH2)
IC50 (MDA-MB-231 cells): 32 ± 1.43 µM
IC50 (MCF-7 cells): 20.3 ± 0.6 µM
CC50 (in vitro; Mean CC50 ± SD +Irr): 40 ± 0.78 µM
CC50 (in vitro; Mean CC50 ± SD −Irr): 55.4 ± 4.64 µM
PIF (Photo-Irritation Factor) (BALB 3T3 cells): 1.4
MIC P. aeruginosa 3700 ([2]; NBIMCC 3700, 24 h): 80 µg/mL (≈ 56.5 µM)
MIC A. oxydans 9333 [3]: 160 µg/mL (≈ 113 µM)
MIC B. subtilis 3562 ([4]; NBIMCC 3562, 24 h): 80 µg/mL (≈ 56.5 µM)
IC50 (MCF-12F cells): 41.8 ± 1.64 µM
